Measurements published in PubChem BioAssay AID328 (DTP/NCI, 2004).
Values joined by “and” are separate entries in the source; they are usually repeats but may differ in a detail not shown here. Equal entries are not always repeated. Inconclusive results and toxic doses are left out. How the source made its calls: active means survival T/C of 150% or more; inactive means T/C below 125% in these data. Residues, ends and D or L forms follow the SMILES beside them. *: point of attachment. Bn = c1ccc(C*)cc1; For = O=C*

Test system: BDF1 mice, P388 leukemia ip, median survival T/C
Assay: NCI In Vivo Anticancer Drug Screen. Data for tumor model P388 Leukemia (intraperitoneal) in B6D2F1 (BDF1) mice
Conditions: endpoint: median survival time, higher = longer survival
In short: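 Steps: implant the tumour, treat one group with compound and another with vehicle, record survival, then divide treated by control.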

[1] = dose: 25.0 mg/kg/injection, schedule: Q01DX009 (ip), vehicle: Klucel (hydroxypropylcellulose) (HPC)
[2] = dose: 50.0 mg/kg/injection, schedule: Q01DX009 (ip), vehicle: Klucel (hydroxypropylcellulose) (HPC)
[3] = dose: 100.0 mg/kg/injection, schedule: Q01DX009 (ip), vehicle: Klucel (hydroxypropylcellulose) (HPC)
[4] = dose: 100.0 mg/kg/injection, schedule: Q04DX003 (ip), vehicle: Klucel (hydroxypropylcellulose) (HPC)
[5] = dose: 50.0 mg/kg/injection, schedule: Q01DX009 (ip), vehicle: saline with Tween-80
[6] = dose: 100.0 mg/kg/injection, schedule: Q01DX009 (ip), vehicle: saline with Tween-80
[7] = dose: 200.0 mg/kg/injection, schedule: Q01DX009 (ip), vehicle: saline with Tween-80
[8] = dose: 100.0 mg/kg/injection, schedule: Q04DX003 (ip), vehicle: saline with Tween-80
[9] = dose: 200.0 mg/kg/injection, schedule: Q04DX003 (ip), vehicle: saline with Tween-80
[10] = dose: 400.0 mg/kg/injection, schedule: Q04DX003 (ip), vehicle: saline with Tween-80
[11] = dose: 12.5 mg/kg/injection, schedule: Q01DX009 (ip), vehicle: saline
[12] = dose: 25.0 mg/kg/injection, schedule: Q01DX009 (ip), vehicle: saline
[13] = dose: 50.0 mg/kg/injection, schedule: Q01DX009 (ip), vehicle: saline
[14] = dose: 50.0 mg/kg/injection, schedule: Q04DX003 (ip), vehicle: saline
[15] = dose: 75.0 mg/kg/injection, schedule: Q01DX009 (ip), vehicle: saline
[16] = dose: 100.0 mg/kg/injection, schedule: Q01DX009 (ip), vehicle: saline
[17] = dose: 100.0 mg/kg/injection, schedule: Q04DX003 (ip), vehicle: saline
[18] = dose: 200.0 mg/kg/injection, schedule: Q01DX009 (ip), vehicle: saline
[19] = dose: 200.0 mg/kg/injection, schedule: Q04DX003 (ip), vehicle: saline
[20] = dose: 400.0 mg/kg/injection, schedule: Q04DX003 (ip), vehicle: saline
[21] = dose: 200.0 mg/kg/injection, schedule: Q01DX009 (ip), vehicle: Klucel (hydroxypropylcellulose) (HPC)
[22] = dose: 400.0 mg/kg/injection, schedule: Q01DX009 (ip), vehicle: saline with Tween-80

Measured: T/C

CCN(CC)CCCC#CCN1CCCCC1
inactive: [1] 100 % of control | dose: 25.0 mg/kg/injection, schedule: Q04DX003 (ip), vehicle: Klucel (hydroxypropylcellulose) (HPC) 91 % of control | [2] 90 % of control | dose: 50.0 mg/kg/injection, schedule: Q04DX003 (ip), vehicle: Klucel (hydroxypropylcellulose) (HPC) 91 % of control | [3] 100 % of control | [4] 91 % of control

O=C1OC(O)(c2ccccc2)C(c2ccccc2)=C1c1ccccc1 (stereo not given)
inactive: [5] 119 % of control | [6] 110 % of control | [7] 108 % of control

O=C(O)/C(Cc1cnc2ccccc2n1)=N\O
inactive: [8] 95 % of control | [9] 100 % of control | [10] 91 % of control

C=C=[CH][Sn]([c]1ccccc1)([c]1ccccc1)[c]1ccccc1
inactive: dose: 6.25 mg/kg/injection, schedule: Q01DX009 (ip), vehicle: Klucel (hydroxypropylcellulose) (HPC) 92 % of control and 108 % of control | dose: 12.5 mg/kg/injection, schedule: Q01DX009 (ip), vehicle: Klucel (hydroxypropylcellulose) (HPC) 96 % of control and 104 % of control | [1] 107 % of control and 112 % of control and 115 % of control

CCCCCCCCSC(=S)N(C)NC(=O)c1ccccn1
inactive: [5] 99 % of control | [6] 105 % of control

COc1cc(OC)c(N=Cc2ccc3c(c2)OCO3)cc1Cl
inactive: [4] 100 % of control | dose: 200.0 mg/kg/injection, schedule: Q04DX003 (ip), vehicle: Klucel (hydroxypropylcellulose) (HPC) 100 % of control

Nc1ccc(C(=O)Nc2ccc(Nc3ccncc3)cc2)c([N+](=O)[O-])c1
inactive: [11] 97 % of control | [12] 97 % of control | [13] 119 % of control | [14] 94 % of control | [15] 90 % of control | [16] 108 % of control | [17] 100 % of control | [18] 111 % of control | [19] 92 % of control | dose: 400.0 mg/kg/injection, schedule: Q01DX009 (ip), vehicle: saline 111 % of control | [20] 92 % of control

COc1ccc(C=[N+](C)CCc2ccc(OC)c(OC)c2)cc1OC
inactive: [12] 95 % of control | [13] 101 % of control | [14] 106 % of control | [16] 100 % of control | [17] 102 % of control | [18] 116 % of control | [19] 100 % of control | [20] 106 % of control

C=CC12COC(=O)C(=C)C1C(O)C1C(=C)C(=O)OC1C2 (stereo not given)
inactive: dose: 3.75 mg/kg/injection, schedule: Q01DX009 (ip), vehicle: saline + alcohol 113 % of control | dose: 15.0 mg/kg/injection, schedule: Q01DX009 (ip), vehicle: saline + alcohol 90 % of control

COc1ccccc1C(=O)NS(=O)(=O)c1ccc(Cl)cc1
inactive: [2] 105 % of control | [3] 110 % of control | [21] 120 % of control

CC1CC2C(CC1=O)C(C)(C)CCC2(C)C (stereo not given)
inactive: [3] 109 % of control | [21] 104 % of control | dose: 264.0 mg/kg/injection, schedule: Q04DX003 (ip), vehicle: Klucel (hydroxypropylcellulose) (HPC) 104 % of control and 109 % of control | dose: 400.0 mg/kg/injection, schedule: Q01DX009 (ip), vehicle: Klucel (hydroxypropylcellulose) (HPC) 86 % of control | dose: 400.0 mg/kg/injection, schedule: Q04DX003 (ip), vehicle: Klucel (hydroxypropylcellulose) (HPC) 104 % of control

CCC[As](=O)(O)CCC
inactive: [11] 115 % of control | [12] 110 % of control | dose: 33.0 mg/kg/injection, schedule: Q01DX009 (ip), vehicle: saline 100 % of control | [15] 120 % of control

COc1c(C)c2c3c4c1C(=O)C(=CC4=O)NC(=O)/C(C)=C\C=C\C(C)C1OC(C)(C)OC(C1C)C(C)C(OC(C)=O)C(C)C(OC)/C=C/OC(C)(O2)C3=O (stereo not given)
inactive: dose: 12.5 mg/kg/injection, schedule: Q01DX009 (ip), vehicle: saline with Tween-80 109 % of control | dose: 25.0 mg/kg/injection, schedule: Q01DX009 (ip), vehicle: saline with Tween-80 113 % of control | [5] 105 % of control and 117 % of control

COc1ccc2c(C(=O)CCC(=O)O)cccc2c1
inactive: dose: 100.0 mg/kg/injection, schedule: Q01DX001 (ip), vehicle: saline 100 % of control | dose: 200.0 mg/kg/injection, schedule: Q01DX001 (ip), vehicle: saline 100 % of control | dose: 400.0 mg/kg/injection, schedule: Q01DX001 (ip), vehicle: saline 100 % of control

CC(C)CC(NC(=O)C(Cc1ccc(OCc2ccccc2)cc1)NC=O)C(=O)O (stereo not given) (For-Tyr(Bn)-Leu-OH; configuration not given here)
inactive: [5] 110 % of control | [6] 95 % of control and 100 % of control (2×) | dose: 100.0 mg/kg/injection, schedule: Q01DX009 (ip), vehicle: sodium bicarbonate 90 % of control | [8] 105 % of control | [7] 86 % of control and 95 % of control and 110 % of control | dose: 200.0 mg/kg/injection, schedule: Q01DX009 (ip), vehicle: sodium bicarbonate 105 % of control | [9] 105 % of control | [22] 90 % of control | [10] 110 % of control

Oc1ccc(C=Nc2ccccc2N=Cc2ccc(O)c(O)c2)cc1O
inactive: [6] 109 % of control | [8] 110 % of control | [7] 109 % of control | [9] 105 % of control | [22] 104 % of control | [10] 110 % of control

ClC(Cl)(Cl)C(Cl)(Cl)c1ccc(C(Cl)(Cl)C(Cl)(Cl)Cl)cc1
inactive: dose: 18.75 mg/kg/injection, schedule: Q01DX009 (ip), vehicle: saline with Tween-80 100 % of control | dose: 37.5 mg/kg/injection, schedule: Q01DX009 (ip), vehicle: saline with Tween-80 100 % of control | dose: 75.0 mg/kg/injection, schedule: Q01DX009 (ip), vehicle: saline with Tween-80 100 % of control | dose: 100.0 mg/kg/injection, schedule: Q04DX003 (ip), vehicle: saline sonified 100 % of control | [7] 92 % of control | dose: 400.0 mg/kg/injection, schedule: Q04DX003 (ip), vehicle: saline sonified 95 % of control

Nc1ccccc1SC1CC(=O)N(c2ccc(Br)c(Cl)c2)C1=O (stereo not given)
inactive: dose: 0.1 mg/kg/injection, schedule: Q01DX005 (ip), vehicle: saline with Tween-80 98 % of control | dose: 0.2 mg/kg/injection, schedule: Q01DX005 (ip), vehicle: saline with Tween-80 93 % of control | dose: 0.4 mg/kg/injection, schedule: Q01DX005 (ip), vehicle: saline with Tween-80 100 % of control | dose: 1.5 mg/kg/injection, schedule: Q01DX005 (ip), vehicle: saline with Tween-80 95 % of control | dose: 3.0 mg/kg/injection, schedule: Q01DX005 (ip), vehicle: saline with Tween-80 90 % of control

CN(C)CCCN=C1Nc2ccccc2C(=NCCCN(C)C)Nc2ccccc21
inactive: [11] 104 % of control | dose: 12.5 mg/kg/injection, schedule: Q04DX003 (ip), vehicle: saline 100 % of control | [12] 95 % of control | dose: 25.0 mg/kg/injection, schedule: Q04DX003 (ip), vehicle: saline 88 % of control | [13] 100 % of control | [14] 111 % of control
